Entries after “also recorded” stand apart in the source; their conditions may differ.
Test system: organo-typical cultures of the hippocampus
Assay: Inflammation-provoked degeneration of organo-typical hippocampal slice cultures, propidium iodide fluorescence
Type: cell-based, Sprague-Dawley rats
Settings: for protection of the neural tissue against degeneration (propidium iodide staining): reagent incubated over 48 hours together with LPS (200 ηg/ml) and GM-CSF (1 ηg/ml); for degeneration of the tissue / neurons (propidium iodide staining), cytokin in combination with LPS: cytokin plus LPS (200 μm/ml [sic] in the source, 200 ηg/ml), 48 hours, M-CSF 10 ηg/ml, IFNy 30 ηg/ml, GM-CSF 1 ηg/ml
Procedure: For the preparation of organo-typical cultures of the hippocampus, 7 to 8 day-old Sprague-Dawley rats were used. From the isolated hippocampus of these animals ca. 400 μm thick slices were prepared, each approximately comprising 20 cell layers. […] The slices were able to be cultured in 6-pore culture plates for up to 3 weeks through changing the medium below the membrane.
All the incubations were carried out in a medium that contained a minimum of 50% of essential medium/HEPES, 25% of Hank's balanced salt solution and 25% of heat-inactivated horse serum.
The degeneration of the tissue was rendered visible by means of a propidium iodide-fluorescence of the cells, which, because of the injury sustained, could no longer prevent, […], diffusion into the cell nucleus and staining of the DNA. Consequently, the red fluorescence above a threshold value was evaluated as the signal for the degeneration of cells. The degree of degeneration per slice was expressed as the percentage of the total surface that the red values lay above the threshold.
Here, both reagents were incubated over 48 hours with LPS and GM-CSF. Thus, for working in this assay, both steroidal as well as non-steroidal reagents were used.
Organo-typical cultures were incubated with LPS either alone or in combination with the pro-inflammatory cytokins GM-CSF and M-CSF over 48 hours. The injury to the tissue (cell mortality) was established by means of propidium iodide staining (A) and quantified by means of an automated picture analysis (B).

Molecule	protection of the neural tissue against degeneration (propidium iodide staining)	degeneration of the tissue / neurons (propidium iodide staining), cytokin in combination with LPS	degeneration / injury of the tissue (propidium iodide staining), substance alone (incubated alone over 48 hours)
CC(=O)Oc1ccccc1C(=O)O [acetyl salicylic acid, reference compound]	complete protection of the neural tissue; also recorded: protected	–	–
CC(C)Cc1ccc(C(C)C(=O)O)cc1 (stereo not drawn) [iboprufen, reference compound]	protective activity	–	–
GM-CSF: Granulocyte Macrophage Colony-Stimulating Factor, pro-inflammatory cytokin	–	dramatic degeneration of neurons; also recorded: maximum injury	did not lead to any detectable injury
IFNy: pro-inflammatory cytokin that activates the microglia and can induce MHC expression	–	very strong degeneration of the tissue	–
M-CSF: pro-inflammatory cytokin that activates microglia (protein, UniProt P09603 33-554, looked up) Macrophage colony-stimulating …: EEVSEYCSHMIGSGHLQSLQRLIDSQMETSCQITFEFVDQEQLKDPVCYLKKAFLLVQDIMEDTMRFRDNTPNAIAIVQLQELSLRLKSCFTKDYEEHDKACVRTFYETPLQLLEKVKNVFNETKNLLDKDWNIFSKNCNNSFAECSSQDVVTKPDCNCLYPKAIPSSDPASVSPHQPLAPSMAPVAGLTWEDSEGTEGSSLLPGEQPLHTVDPGSAKQRPPRSTCQSFEPPETPVVKDSTIGGSPQPRPSVGAFNPGMEDILDSAMGTNWVPEEASGEASEIPVPQGTELSPSRPGGGSMQTEPARPSNFLSASSPLPASAKGQQPADVTGTALPRVGPVRPTGQDWNHTPQKTDHPSALLRDPPEPGSPRISSLRPQGLSNPSTLSAQPQLSRSHSSGSVLPLGELEGRRSTRDRRSPAEPEGGPASEGAARPLPRFNSVPLTDTGHERQSEGSFSPQLQESVFHLLVPSVILVLLAVGGLLFYRWRRRSHQEPQRADSPLEQPEGSPLTQDDRQVELPV	–	dramatic degeneration of neurons; also recorded: less precipitous	–

From US20080118475A1, “Model System for Testing the Efficacy of Pharmaceutical Preparation on Inflammatory Processes in the Nervous System” (KEYNEUROTEK AG, priority 2004, published 2008)
